Experimental data reported in article PMC7615677 (Science translational medicine, 2023).
Like-named read-outs stand apart in the source and are kept apart here.

Key:
[1] = tested on: Salmonella typhimurium strains TA1535, TA1537, TA98 and TA100, and Escherichia coli WP2 uvrA (pKM101); test: Ames test; assay type: cell-based; conditions: absence or presence of rat liver S9
Description: Salmonella typhimurium strains TA1535, TA1537, TA98 and TA100, and Escherichia coli WP2 uvrA (pKM101) were employed. Positive controls were respectively sodium azide (2 μg/plate), 9-amino acridine (50 μg/plate), 2-nitrofluorene (1 μg/plate), sodium azide (2 μg/plate) and 4-nitroquinoline-1-oxide (2 μg/plate). The negative control was DMSO.

In vivo pharmacokinetics = test: In vivo pharmacokinetics; design: species or system male beagle dogs
Description: Additional PK studies were also conducted by WuXi AppTec Co, Ltd (Shanghai, China) according to protocols reviewed and approved by DNDi. […] IV and oral formulations for rats, mice and hamsters were the same as described above. For dogs, the IV dose was administered in saline containing 2% DMSO and 3% Solutol HS-15 and the oral formulation was as described above. Blood was sampled up to 48 h post-dose into vials containing potassium EDTA as an anticoagulant, proteins were precipitated with acetonitrile and plasma was separated and assayed by LC-MS.
Single dose pharmacokinetic parameters (clearance, volume of distribution and half-life) were initially estimated using non-compartmental methods and oral bioavailability was calculated using the ratio of the dose corrected AUC after oral dosing relative to that after IV administration. Nominal doses were used in the calculations unless the measured dose differed by more than 15% from the nominal dose, in which case the measured dose was used. Where a full concentration versus time profile was obtained from a single animal, parameters were estimated for each animal and mean and standard deviations calculated. In the case of mice where sparse sampling was used with multiple animals per time point, the data analysis was conducted using the mean profile.

hERG [2] = target: T1, hERG (Homo sapiens, UniProt Q12809); test: hERG channel test (Qpatch / Qube); assay type: cell-based; design: host or cells: Chinese hamster ovary cells; conditions: Qpatch hERG
Description: Two concentrations (1 and 30 μM, two replicates each) were tested at room temperature.

[3] = tested on: L. donovani promastigote cultures; test: microbe, parasite or virus in culture; assay type: cell-based; conditions: Leishmania donovani
Description: The clonal L. donovani cell line LdBOB (derived from MHOM/SD/62/1S-CL2D) was grown as promastigotes at 28°C and as axenic amastigotes at 37°C, as described previously ([25]).
To examine the effects of test compounds on growth in 96-well plates, promastigote or axenic amastigote cultures seeded at 5 × 10^4 parasites mL^–1 were incubated in the presence of 2-fold serial dilutions of test compounds for 72 h. Following incubation, 50 μM resazurin was added to each well and fluorescence (excitation of 528 nm and emission of 590 nm) measured after a further 3 h incubation.
Starting at sublethal concentrations, drug concentrations in 5 independent cultures were increased in a stepwise manner, usually by 2-fold. […] Five clones (Res 1–5) were selected for further biological study.

CaV1.2 = CaV1.2 (Homo sapiens, UniProt Q13936); test: in vitro
[4] = tested on: remaining CYP isoforms other than CYP1A2 and CYP3A4/5 (CYP2B6, CYP2C8, CYP2C9, CYP2C19, CYP2D6); test: Cytochrome P450 inhibition, human liver microsomes; assay type: in vitro ADME; conditions: remaining isoforms (other than CYP1A2 and CYP3A4/5)
Description: Direct CYP inhibition studies were conducted using conditions described previously ([43]) following incubation of isoform-specific substrates with human liver microsomes. The formation of known metabolites mediated by a specific CYP isoform was monitored. CYP isoform-specific pathways (and positive control inhibitors) included CYP1A2: phenacetin O-deethylation (furafylline), CYP2B6: bupropion hydroxylation (PPP), CYP2C8: amodiaquine deethylation (quercetin) CYP2C9: tolbutamide methylhydroxylation (sulfaphenazole), CYP2C19: (S)-mephenytoin 4’-hydroxylation (ticlopidine), CYP2D6: dextromethorphan O-demethylation (quinidine), and CYP3A: midazolam 1’-hydroxylation and testosterone 6β-hydroxylation (ketoconazole). […] The organic solvent content was maintained at less than 1% (v/v). NADPH was added to initiate the reaction which was then quenched by the addition of acetonitrile containing internal standard at specified times. Concentrations of the isoform-specific metabolites were quantified by LC-MS (Waters Xevo TQD triple quadrupole MS coupled to a Waters Acquity UPLC system) relative to calibration standards prepared in pre-quenched microsomal matrix.

[5] = Exploratory 14-day rat toxicology study
From the text: Parameters monitored included morbidity/mortality, clinical signs, body weight, food consumption, hematology and serum clinical chemistry. Main study animals were killed on the day after the last dose and necropsied. Selected organs were weighed. Organ/tissue samples were fixed and preserved at necropsy. Following the macroscopic examination, selected organs/tissues were examined histopathologically and compared to the control group. Satellite animals were sampled for toxicokinetics on days 1 and 14, at various time-points after treatment.

hERG [6] = target: T1, hERG; test: In vitro pharmacology panel (Eurofins); design: purchased Eurofins (Cerep/DiscoverX SafetyScreen44 in vitro pharmacology panel); conditions: human hERG potassium channel, [3H]dofetilide binding assay, probe [3H] Dofetilide, read-out: activity (% of DMSO control)
From the text: Listed values represent the percent change relative to the DMSO control activity. When an IC50 had to be determined, eight different concentrations were included. All values are the mean of assay readout duplicates.

THP-1 = test: MitoXpress oxygen consumption assay; assay type: cell-based
[7] = tested on: L5178Y mouse lymphoma cells; test: In vitro mutation assay at the TK locus; assay type: cell-based; conditions: absence or presence of rat liver S9
Description: Two independent mutation tests were carried out: one in which cells were treated for 3 h in the presence of rat liver S9 mix and with […] as a positive control, and a second treated for 24 h in the absence of S9 mix and with […] as a positive control. In both cases, DMSO was used as the negative control. In accordance with current guidelines ICH S2(R1), 2011 ([41]) mutant frequency was counted at concentrations where solubility was not a limiting factor and cytotoxicity was not observed.

[8] = dogs, single oral 90 mg/kg, two individual dogs, 90 mg/kg
[9] = male, beagle, dog, plasma, dogs, single oral 30 mg/kg
[10] = male, beagle, dog, plasma, dogs, single oral 90 mg/kg
[11] = male, beagle, plasma, Dog, oral 5.0 mg/kg

T1 sequence (Q12809 whole entry): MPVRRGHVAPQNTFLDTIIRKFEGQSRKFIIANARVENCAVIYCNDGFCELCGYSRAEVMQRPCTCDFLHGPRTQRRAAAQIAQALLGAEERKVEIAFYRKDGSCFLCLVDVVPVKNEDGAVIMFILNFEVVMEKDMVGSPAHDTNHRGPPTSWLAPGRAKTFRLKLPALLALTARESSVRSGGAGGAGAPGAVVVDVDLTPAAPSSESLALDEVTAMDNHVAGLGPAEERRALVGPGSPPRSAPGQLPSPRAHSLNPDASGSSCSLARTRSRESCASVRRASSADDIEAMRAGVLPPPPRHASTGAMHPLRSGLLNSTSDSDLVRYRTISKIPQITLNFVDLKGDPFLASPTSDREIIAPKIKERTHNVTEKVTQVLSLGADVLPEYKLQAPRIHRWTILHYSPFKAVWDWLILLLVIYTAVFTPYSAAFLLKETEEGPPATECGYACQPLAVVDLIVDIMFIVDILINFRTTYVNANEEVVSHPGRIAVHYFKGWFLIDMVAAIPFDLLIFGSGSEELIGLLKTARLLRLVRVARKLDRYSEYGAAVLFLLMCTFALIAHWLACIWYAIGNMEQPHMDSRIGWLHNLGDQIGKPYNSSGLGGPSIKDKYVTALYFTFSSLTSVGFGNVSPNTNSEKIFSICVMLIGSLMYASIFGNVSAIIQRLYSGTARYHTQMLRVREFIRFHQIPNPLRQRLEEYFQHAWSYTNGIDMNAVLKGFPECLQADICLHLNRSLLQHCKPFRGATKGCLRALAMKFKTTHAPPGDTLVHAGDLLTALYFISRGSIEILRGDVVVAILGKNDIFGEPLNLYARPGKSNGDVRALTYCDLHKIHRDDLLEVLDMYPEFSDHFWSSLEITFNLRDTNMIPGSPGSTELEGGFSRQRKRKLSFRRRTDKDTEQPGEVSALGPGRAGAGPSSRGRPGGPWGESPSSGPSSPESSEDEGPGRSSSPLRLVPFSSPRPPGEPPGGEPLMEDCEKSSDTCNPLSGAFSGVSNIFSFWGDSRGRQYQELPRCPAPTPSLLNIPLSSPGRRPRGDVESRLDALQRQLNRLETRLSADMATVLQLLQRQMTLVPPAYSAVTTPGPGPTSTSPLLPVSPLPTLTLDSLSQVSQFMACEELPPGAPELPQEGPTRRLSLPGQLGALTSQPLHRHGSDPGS
CaV1.2, sequence (Q13936 whole entry, canonical isoform): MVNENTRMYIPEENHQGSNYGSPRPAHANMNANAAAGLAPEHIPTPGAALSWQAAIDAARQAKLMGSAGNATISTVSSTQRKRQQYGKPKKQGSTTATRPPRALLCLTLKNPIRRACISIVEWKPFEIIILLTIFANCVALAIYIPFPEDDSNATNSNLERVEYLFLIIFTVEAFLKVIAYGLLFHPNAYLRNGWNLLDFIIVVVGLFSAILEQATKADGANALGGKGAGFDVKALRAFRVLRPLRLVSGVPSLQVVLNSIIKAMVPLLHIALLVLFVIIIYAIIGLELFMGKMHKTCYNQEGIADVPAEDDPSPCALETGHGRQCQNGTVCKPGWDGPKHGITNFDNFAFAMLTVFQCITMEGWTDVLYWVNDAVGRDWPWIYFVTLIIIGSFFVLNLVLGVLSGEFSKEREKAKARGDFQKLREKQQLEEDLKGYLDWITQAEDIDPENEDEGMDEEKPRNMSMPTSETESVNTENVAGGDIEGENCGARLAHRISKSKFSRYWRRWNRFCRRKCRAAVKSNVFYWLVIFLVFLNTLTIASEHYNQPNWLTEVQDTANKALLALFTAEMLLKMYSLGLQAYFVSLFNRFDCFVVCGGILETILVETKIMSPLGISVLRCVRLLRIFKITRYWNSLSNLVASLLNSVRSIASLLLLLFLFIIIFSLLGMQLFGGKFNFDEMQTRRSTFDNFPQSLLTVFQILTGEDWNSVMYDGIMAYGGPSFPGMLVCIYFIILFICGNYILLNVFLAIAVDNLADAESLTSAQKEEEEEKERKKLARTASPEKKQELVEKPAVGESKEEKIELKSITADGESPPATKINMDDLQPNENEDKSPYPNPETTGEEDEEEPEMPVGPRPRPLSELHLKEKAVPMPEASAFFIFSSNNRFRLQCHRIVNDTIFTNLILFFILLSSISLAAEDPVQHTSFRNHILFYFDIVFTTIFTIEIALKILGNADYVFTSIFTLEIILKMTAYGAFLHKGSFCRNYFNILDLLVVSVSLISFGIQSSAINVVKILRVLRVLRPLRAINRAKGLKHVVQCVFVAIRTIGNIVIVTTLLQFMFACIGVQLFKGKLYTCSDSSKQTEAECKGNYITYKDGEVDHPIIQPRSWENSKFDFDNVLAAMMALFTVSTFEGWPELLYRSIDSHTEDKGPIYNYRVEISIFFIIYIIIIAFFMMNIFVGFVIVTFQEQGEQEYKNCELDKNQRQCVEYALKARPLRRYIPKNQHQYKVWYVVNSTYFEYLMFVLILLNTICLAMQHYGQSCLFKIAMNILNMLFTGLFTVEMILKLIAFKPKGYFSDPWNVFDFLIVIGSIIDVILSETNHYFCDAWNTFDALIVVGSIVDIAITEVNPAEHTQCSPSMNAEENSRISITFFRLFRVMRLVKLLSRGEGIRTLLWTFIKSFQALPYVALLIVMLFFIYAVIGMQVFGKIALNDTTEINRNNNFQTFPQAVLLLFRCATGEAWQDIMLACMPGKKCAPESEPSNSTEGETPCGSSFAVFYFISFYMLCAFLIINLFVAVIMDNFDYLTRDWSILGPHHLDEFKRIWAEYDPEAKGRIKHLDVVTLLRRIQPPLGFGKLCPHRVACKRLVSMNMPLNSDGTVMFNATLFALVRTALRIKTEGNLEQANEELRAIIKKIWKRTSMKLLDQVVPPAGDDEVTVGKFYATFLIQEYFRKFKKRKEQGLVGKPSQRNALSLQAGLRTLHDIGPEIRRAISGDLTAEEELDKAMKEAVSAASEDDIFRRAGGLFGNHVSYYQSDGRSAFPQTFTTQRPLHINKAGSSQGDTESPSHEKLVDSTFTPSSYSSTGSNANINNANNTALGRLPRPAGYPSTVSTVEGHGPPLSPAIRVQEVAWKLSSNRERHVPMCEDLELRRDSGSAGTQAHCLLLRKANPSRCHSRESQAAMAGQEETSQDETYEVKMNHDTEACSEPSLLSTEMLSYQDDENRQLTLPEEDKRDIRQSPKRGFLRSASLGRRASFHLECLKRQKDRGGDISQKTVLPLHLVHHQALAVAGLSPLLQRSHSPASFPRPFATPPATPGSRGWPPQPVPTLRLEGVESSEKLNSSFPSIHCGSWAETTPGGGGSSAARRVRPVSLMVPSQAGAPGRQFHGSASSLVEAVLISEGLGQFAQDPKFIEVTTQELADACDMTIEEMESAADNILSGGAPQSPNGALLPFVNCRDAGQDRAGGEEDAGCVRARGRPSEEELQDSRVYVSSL
CaV1.2, sequence (Q08289 whole entry partner, canonical isoform): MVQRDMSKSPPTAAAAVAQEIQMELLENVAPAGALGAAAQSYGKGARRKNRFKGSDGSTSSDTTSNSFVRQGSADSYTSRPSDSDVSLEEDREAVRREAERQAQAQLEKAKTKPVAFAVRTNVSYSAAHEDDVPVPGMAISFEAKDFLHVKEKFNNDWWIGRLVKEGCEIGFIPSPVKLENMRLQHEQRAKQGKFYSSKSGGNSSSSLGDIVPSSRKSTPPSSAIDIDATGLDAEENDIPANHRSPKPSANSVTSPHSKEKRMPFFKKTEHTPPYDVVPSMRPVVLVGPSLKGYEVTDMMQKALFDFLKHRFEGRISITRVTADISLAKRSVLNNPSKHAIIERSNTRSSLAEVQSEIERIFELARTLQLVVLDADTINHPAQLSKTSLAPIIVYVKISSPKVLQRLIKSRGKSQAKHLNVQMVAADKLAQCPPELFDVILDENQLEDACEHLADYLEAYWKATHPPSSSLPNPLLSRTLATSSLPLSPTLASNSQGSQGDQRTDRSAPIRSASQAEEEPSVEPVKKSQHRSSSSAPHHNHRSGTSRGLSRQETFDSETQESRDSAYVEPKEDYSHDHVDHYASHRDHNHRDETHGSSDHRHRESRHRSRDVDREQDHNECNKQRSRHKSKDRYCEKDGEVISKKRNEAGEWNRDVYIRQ

Cc1[nH]c2nc(N)nc(C)c2c1-c1ccc(C#N)c2c1OCO2 [DNDI-6174]
mutagenic potential (AMES), in words [1]: did not show intrinsic mutagenic potential
AUC0-∞ (In vivo pharmacokinetics; [8]): 533 µg·h/mL
T1/2 (In vivo pharmacokinetics; [8]): 20.9 h
half-life (In vivo pharmacokinetics; male, beagle, dog, plasma, iv, 1 mg/kg, Dog, intravenous 1.0 mg/kg, read-out: Apparent t1/2 (converted)): 9.84 h
AUC(0-inf) (In vivo pharmacokinetics; male, beagle, dog, plasma, iv, 1 mg/kg, Dog, intravenous 1.0 mg/kg, read-out: Plasma AUC0-inf): 5 µg·h/mL
clearance (In vivo pharmacokinetics; male, beagle, dog, plasma, iv, 1 mg/kg, Dog, intravenous 1.0 mg/kg, read-out: Plasma CL): 3.5 mL/min/kg
clearance (In vivo pharmacokinetics; male, beagle, dog, plasma, iv, 1 mg/kg, Dog, read-out: Measured in vivo CLplasma): 3.4 mL/min/kg
half-life (In vivo pharmacokinetics; male, beagle, dog, plasma, po, 5 mg/kg, Dog, oral 5.0 mg/kg, read-out: Apparent t1/2 (converted)): 6.9 h
AUC(0-inf) (In vivo pharmacokinetics; male, beagle, dog, plasma, po, 5 mg/kg, Dog, oral 5.0 mg/kg, read-out: Plasma AUC0-∞): 18.5 µg·h/mL
AUC(0-inf) (In vivo pharmacokinetics; male, beagle, dog, plasma, po, 30 mg/kg, dogs, single oral 30 mg/kg, read-out: AUC0-∞): 255 µg·h/mL
half-life (In vivo pharmacokinetics; male, beagle, dog, plasma, po, 30 mg/kg, dogs, single oral 30 mg/kg, read-out: T1/2 (converted)): 14.4 h
AUC(0-inf) (In vivo pharmacokinetics; male, beagle, dog, plasma, po, 90 mg/kg, dogs, single oral 90 mg/kg, two individual dogs, read-out: AUC0-∞): 613 µg·h/mL
half-life (In vivo pharmacokinetics; male, beagle, dog, plasma, po, 90 mg/kg, dogs, single oral 90 mg/kg, two individual dogs, read-out: T1/2 (converted)): 14.2 h
Cmax (In vivo pharmacokinetics; [9]): 9590 ng/mL
Tmax (In vivo pharmacokinetics; [9]): 3.33 h
Cmax (In vivo pharmacokinetics; [10]): 19100 ng/mL
Tmax (In vivo pharmacokinetics; [10]): 10.7 h
Vd (In vivo pharmacokinetics; male, beagle, plasma, Dog, intravenous 1.0 mg/kg, read-out: Plasma Vss): 2.5 L/kg
Cmax (In vivo pharmacokinetics; [11]): 2020 ng/mL
Tmax (In vivo pharmacokinetics; [11]): 4 h
bioavailability (In vivo pharmacokinetics; [11]): 90%
inhibition at 1 µM (hERG [2]; 1 μM): 3.81%
inhibition at 10 µM (hERG [2]; 10 μM): 48%
EC50 ([3]; DDD01716002 Res 1, read-out: EC50 (representative curve, Fig. 2A)): 1.276 ± 0.002 µM
EC50 ([3]; WT, read-out: EC50 (representative curve, Fig. 2A)): 0.022 ± 0.002 µM
EC50 ([3]; Wild-type promastigotes, read-out: EC50 values): 0.024 ± 0.001 µM
EC50 ([3]; read-out: EC50 values, DDD01716002 Res 1 (S207P)): 0.779 ± 0.098 µM
EC50 ([3]; read-out: EC50 values, DDD01716002 Res 2 (G31A)): 0.829 ± 0.063 µM
EC50 ([3]; read-out: EC50 values, DDD01716002 Res 3 (F227I)): 0.084 ± 0.003 µM
EC50 ([3]; read-out: EC50 values, DNDI-6174 Res 1 (S35N/S206N)): 0.431 ± 0.016 µM
EC50 ([3]; read-out: EC50 values, DNDI-6174 Res 2 (D231E)): 3.95 ± 0.228 µM
EC50 ([3]; read-out: EC50 values, DNDI-6174 Res 3 (S207P)): 1.5 ± 0.091 µM
EC50 ([3]; read-out: EC50 values, DNDI-6174 Res 4 (G31A)): 2.7 ± 0.145 µM
EC50 ([3]; read-out: EC50 values, DNDI-6174 Res 5 (S206N)): 0.157 ± 0.005 µM
inhibition at 100 µM (CaV1.2): 43%
IC50 [4]: > 15 µM
tolerability, in words ([5]; 200 mg/kg): early sacrifice of one female on day 5
body weight decrease ([5]; 200 mg/kg, males): > 10%
tolerability, in words ([5]; 30 and 80 mg/kg oral): no mortality or morbidity
activity at 10 µM (hERG [6]): 94.2%
XC50 (THP-1): > 50 µM
pXC50 (THP-1): < 4.3
genotoxicity, in words [7]: not genotoxic
